Test results reported in US10226477B2, “Composition for preventing, improving or treating postmenopausal osteoporosis comprising scopolin” (DONG WOO DANG CO., LTD, priority 2016, dated 2019).
“Also recorded” adds a separate entry of the source.

Assays:
[1] = tested on: ddY female ovariectomized (OVX)-mouse; assay: Serum OPG and RANKL levels by ELISA in ovariectomized menopausal mouse model; assay type: in vivo; details: oral, 12 weeks, scopolin 20 and 40 mg/kg/day, SrCl2 20 mg/kg/day; for decrease in the serum level of OPG (bone formation marker) / increase in the serum level of RANKL (bone resorption marker): p<0.05 vs. OVX
Protocol: (§1) To evaluate in vivo efficacy of scopolin, a 10-week-old ddY female ovariectomized (OVX)-mouse was used a menopausal animal model (ovariectomy was performed on the 8-week-old mouse, and the mouse was additionally raised for 2 weeks). Regarding control groups, a Shame mouse that was subjected to laparotomy, but was not subjected to ovariectomy, (normal control group), and an OVX mouse to which physiological saline was added (negative control group) were used, and in addition, a strontium chloride (SrCl2) mouse in which 20 mg/kg/day of SrCl2, which is a compound having an effect in enhancing bone mineral density, was administered by oral injection to an OVX mouse was used as a positive control group in the test for bone mineral density improvement efficacy. Here, an experimental group was prepared by administering scopolin at a dose of 20 mg/kg/day and 40 mg/kg/day by oral injection. The 10-week-old sham-operated mouse and the ddY OVX-mouse were purchased at Central Lab. Animal Inc., and then, were moved to a clean animal breeding room after spending 1 week of purification period in the laboratory animal quarantine room. These mice were individually weighed to be classified into experimental groups without a statistically significant difference in weight. Scopolin used in the experiment was dissolved in 1% DMSO aqueous solution to be prepared as a test solution. In order to bring these mice in the laboratory animal center, a radiation irradiation company, SOYAGREENTEC Inc., was commissioned for sterilization operations using gamma irradiation.
Next, the changes of blood metabolism markers in the blood were examined. After 12 weeks of the experiment performed on the postmenopausal mouse model, the blood sampling was performed thereon, and serum samples were collected therefrom. The serum protein levels of osteoprotegerin (OPG), which is a bone formation marker, and receptor activator of nuclear factor-kappa B ligand (RANKL), which is a bone resorption marker, were analyzed by ELISA. […] However, in the experimental groups to which scopolin was administered at a dose of 20 mg/kg/day and 40 mg/kg/day for 12 weeks, it was confirmed that the decrease in the level of OPG, which is the bone formation marker in the blood, the increase in the level of RANKL, which is the bone resorption marker, and the decrease in the OPG/RANKL ratios were inhibited (see FIGS. 9A, 9B, and 9C). Such results were similar with those obtained by the SrCl2 mouse which is the positive control group. In addition, in the statistical analysis, the significance of the efficacy of scopolin was also confirmed (*: p<0.05 vs. OVX negative control group).

[2] = tested on: ddY female ovariectomized (OVX)-mouse; assay: Bone mineral density (PIXImus) and femoral micro-CT in ovariectomized menopausal mouse model; assay type: in vivo; details: oral, 12 weeks, scopolin 20 and 40 mg/kg/day, SrCl2 20 mg/kg/day; for decrease in the bone mineral density caused by the menopause: p<0.05 vs. OVX
Protocol: as §1
At the beginning of the animal experiment, a PIXImus bone densitometer was used to measure initial bone mineral density (BMD) of the mice. The mice were anesthetized by injecting 50 μl of a mixed anesthetic of zoletil and rompun (a mixture of zoletil and rompun at a ratio of 1:2 was diluted with physiological saline at a ratio of 2:3), and then, were fixed to a bone mineral density measuring frame to measure bone mineral density. After 6 weeks and 12 weeks of the injection of scopolin to the mice, the bone mineral density of the mice was measured by using the PIXImus bone densitometer. After the completion of the experiment during 12 weeks, blood sampling and removal of femoral bone were performed, and micro-CT was taken thereon. In the micro-CT images, bone volume ratios (BV ratios, %), trabecular thickness (Tb.Th), trabecular number (Tb.N), and trabecular spacing (Tb.Sp) were numeralized and analyzed.

MC3T3-E1 cells [3] = assay: Mineralization of osteoblasts by Alizarin Red S staining; assay type: cell-based; details: 5 μg/ml
Protocol: The mineralization of osteoblasts was analyzed by an Alizarlin red S staining method after experimental groups and a control group were each treated with 5 μg/ml of scopolin and cultured. […] That is, it was confirmed that scopolin was effective in stimulating the differentiation of osteoblasts.

MC3T3-E1 cells [4] = assay: Cytotoxicity of scopolin by cell proliferation analysis (EZ-Cytox, water-soluble tetrazolium salt); assay type: cell-based; details: 1 μg/ml, 5 μg/ml and 10 μg/ml, cultured 2 days, vs. physiological saline control
Protocol: Cytotoxicity of scopolin was evaluated by cell proliferation analysis using an EZ-Cytox Enhanced Cell Viability Assay Kit using a water-soluble tetrazolium salt. In detail, MC3T3-E1 cells (3×10^3 cells/well), which are osteoblasts, were cultured in an alpha-minimum essential medium (α-MEM) supplemented with 10% bovine fetus serum, 1 mM sodium pyruvate, 100 unit/L penicillin, and 100 mg/L streptomycin at a temperature of 37° C. under conditions provided with 5% CO2, and then, the cells were treated with scopolin at three different concentrations (1 μg/ml, 5 μg/ml, and 10 μg/ml) and cultured for 2 days. Next, the tetrazolium salt was applied to each of the cultured cells and a sample, followed by being cultured at a temperature of 37° C. for 2 hours, and then, absorbance thereof was measured at a wavelength of 450 nm.

MC3T3-E1 cells [5] = assay: Osteoblast differentiation: alkaline phosphatase (ALP) activity; assay type: cell-based
Protocol: The efficacy of scopolin on the differentiation of osteoblasts was evaluated by using the MC3T3-E1 cells. Ascorbic acid (50 μg/ml) and β-glycerophosphate (10 mM), which are osteoblast inducers, were added to the MC3T3-E1 cells, to thereby induce the differentiation for 3 days. Then, the resulting cells were treated with scopolin. Scopolin was dissolved in 1% dimethyl sulfoxide (DMSO) aqueous solution, and then, was applied to the MC3T3-E1 cells at concentrations of 1 μg/ml (Sco1), 5 μg/ml (Sco5), and 10 μg/ml (Sco10). The resulting cells were cultured for additional 48 hours. As a control group, cells were cultured in the same amount of 1% DMSO aqueous solution in which scopolin was not treated. To determine the efficacy of scopolin on the differentiation of osteoblasts, the activity of alkaline phosphatase (ALP) was measured. In detail, the cells that were washed using physiological saline and dissolved using a lytic agent was treated with p-nitrophenyl phosphate, which is a substrate of ALP, and then, cultured at a temperature of 37° C. for 1 hour. Subsequently, 0.5N NaOH, which is a reaction terminating solution, was added the cultured cells, and then, absorbance thereof was measured at a wavelength of 405 nm.

MC3T3-E1 cells [6] = assay: Osteoblast differentiation: ALP staining; assay type: cell-based; details: 5 μg/ml

Structure (SMILES) | decrease in the OPG/RANKL ratios [1] | decrease in the serum level of OPG (bone formation marker) [1] | increase in the serum level of RANKL (bone resorption marker) [1] | increase in trabecular spacing (Tb.Sp) [2] | low density of the bone structure (micro-CT images) [2] | reduction in BV ratios (bone volume ratio) [2] | reduction in trabecular number (Tb.N) [2] | reduction in trabecular thickness (Tb.Th) [2] | decrease in the bone mineral density caused by the menopause [2] | mineralization (Alizarin Red S staining) (MC3T3-E1 cells [3]) | effect on the proliferation of the MC3T3-E1 cells (cytotoxicity) (MC3T3-E1 cells [4]) | differentiation of osteoblasts (ALP activity) (MC3T3-E1 cells [5]; 5 μg/ml or 10 μg/ml, 48 hours after 3 days induction, p<0.05 vs. negative control) | stimulating osteoblast differentiation (overall conclusion) (MC3T3-E1 cells [5]; MC3T3-E1 cells, 1-10 μg/ml) | ALP staining (MC3T3-E1 cells [6])
[Cl-].[Cl-].[Sr+2] [SrCl2, strontium chloride, reference compound] | similar | similar | similar | similar | similar | similar | similar | similar | similar | – | – | – | – | –
COc1cc2ccc(=O)oc2cc1O[C@@H]1O[C@H](CO)[C@@H](O)[C@H](O)[C@H]1O [scopolin] | inhibited | significantly inhibits; also recorded: inhibited | significantly inhibits; also recorded: inhibited | inhibited | significantly inhibits; also recorded: inhibited | inhibited | inhibited | inhibited | significantly inhibits; also recorded: inhibited | increased | not toxic; also recorded: no adverse effect | statistically significantly increased | significant effect; also recorded: effective | increased
